Assay type in all cases: cell-based, human
For one data set, the system named is IL-1α. As for the experimental part: (§1) Additionally, the influence on the cell viability and the release of lactate dehydrogenase (LDH) was examined over the incubation time. Disruptions of the cell membranes can be measured by the release of the cytosolic enzyme LDH and be evaluated as a marker for cellular necrosis. As the biocompatibility of the material is determined by further cellular and molecular factors, the analysis of the cellular interleukin release allows the conclusion on e.g. pro-inflammatory effects of the substances, which would not be possible to be detected by sole cytotoxicity. Such interleukins are interleukins 1α, 6 or 8, which are involved in coordinating the cellular proliferation, cell migration and possible inflammatory processes. Such a method is described in, for example, Wiegand C, Hipler UC. Evaluation of biocompatibility and cytotoxicity using keratinocyte and fibroblast cultures. Skin Pharmacol Physiol 2009; 22:74-82; Wiegand C, Winter D, Hipler UC. Molecular-weight-dependent toxic effects of chitosans on the human keratinocyte cell line HaCaT. Skin Pharmacol Physiol. 2010;23(3):164-70.
(§2) The spore suspensions and the solutions of sertaconazol, ciclopiroxolamin and terbinafin were prepared as in Example 1, wherein the respective test concentrations were obtained by diluting these solutions in ultrapure water (WFI; Fresenius Kabi) instead of SGB (Merck). Full skin models were produced as previously described [Reddersen K, Wiegand C, Elsner P, Hipler UC. Three-dimensional human skin model infected with Staphylococcus aureus as a tool for evaluation of bioactivity and biocompatibility of antiseptics. Int J Antimicrob Agents. 2019; 54(3):283-291; Wiegand C, Fink S, Beier O, Horn K, Pfuch A, Schimanski A, Grünler B, Hipler UC, Elsner P. Dose- and Time-Dependent Cellular Effects of Cold Atmospheric Pressure Plasma Evaluated in 3D Skin Models. Skin Pharmacol Physiol. 2016;29(5):257-265].Particularly, normal human dermal fibroblasts (NHDF; Lot 1060702.1, Promocell) and normal human epidermal keratinocytes (NHEK; Lot 9100102, Promocell) were used. Fibroblasts were cultivated in Dulbecco's modified eagle medium (DMEM; Lot MC09049P, Amimed), with 2% foetal calf serum (Lot P160509; PAN), 5 ng/mL hFGF (Lot 0329586; novoprotein) and 5 µg/ml Insulin (Lot H07443P, AMIMED) at 37°C and a 5% CO2 atmosphere. Keratinocytes were cultivated in keratinocyte medium (KBM, Lot 446M063, Promocell) at 37°C and a 5% CO2 atmosphere. The cultivation was performed over 7 days in 75 cm^2 cell culture flasks (Greiner Bio-One). The cells were subsequently detached with Trypsin-EDTA (Lot 2091326; Gibco) and dissolved in the respective medium. For producing the dermis equivalent, fibroblasts were cultivated in 12-well inserts (Greiner bio-one) with DMEM (Lot MC09049P, Amimed) + 10% foetal calf serum (Lot P160509, PAN) + 1% Gentamycin (Lot 2027100, Gibco) + 150 µg/ml ascorbic acid (Lot BCBS1081V, Sigma) for 3 weeks at […] and 5 % CO2. The medium was changed all 2-3 days. Before seeding the keratinocytes for producing the […], the medium surrounding the insert was completely removed and the dermis upper layer was coated with fibronectin (50 µg/mL; Lot 435P078, Promocell). After 30 min of incubation of the dermis equivalent with fibronectin, the seeding of the keratinocytes was performed with 2 × 10^5 cells / insert in KBM (Lot 446M063, Promocell) + 5% FKS (Lot P160509, PAN) + 1% Gentamycin (Lot 2027100, Gibco). Subsequently, the skin models were incubated for 45 min in the incubator before the models were flooded with KBM + 5% FKS + 1% Gentamycin. The skin models were cultivated for 7 days by submersion in the medium with decreasing foetal calf serum concentration (5 %, 2 %, 0 %). The medium was changed all 2-3 days. After the cultivation by submersion, the skin models were further cultivated for 12 days at the air-medium interface (airlift cultivation). […]

In the next data set the test system is IL-8. How it is done:
as §1, §2

The next data set deals with IL-6. How it is done: as §1, §2

Each structure is given as a SMILES string.

With `Cc1cc(C2CCCCC2)n(O)c(=O)c1` [Ciclopiroxolamin, ciclopiroxolamin], in the data set on IL-1α, the “secretion of IL-1α” value is given as “no significant secretion”.

As to `Clc1ccc(C(Cn2ccnc2)OCc2csc3c(Cl)cccc23)c(Cl)c1` (stereo not shown) [Sertaconazol, sertaconazol], the “release of IL-8” value in the data set on IL-8 was “does not induce the release”. Moreover, the “release of IL-6” value in the data set on IL-6 is on record as “does not induce the release”.

As to `CN(C/C=C/C#CC(C)(C)C)Cc1cccc2ccccc12` [Terbinafin, terbinafin], the “secretion of IL-1α” value in the data set with IL-1α was “no significant secretion”.
